In patent publication US20220289679A1, “HETEROCYCLIC COMPOUND” (Takeda Pharmaceutical Company Limited, priority 2019, published 2022):

Target: T1, human GCS (glucosylceramide synthase) (Homo sapiens, UniProt Q16739)
T1 construct: made in house; host or cells: Expi293F cells (transient expression; microsome fraction)
T1 sequence (Q16739 1-394): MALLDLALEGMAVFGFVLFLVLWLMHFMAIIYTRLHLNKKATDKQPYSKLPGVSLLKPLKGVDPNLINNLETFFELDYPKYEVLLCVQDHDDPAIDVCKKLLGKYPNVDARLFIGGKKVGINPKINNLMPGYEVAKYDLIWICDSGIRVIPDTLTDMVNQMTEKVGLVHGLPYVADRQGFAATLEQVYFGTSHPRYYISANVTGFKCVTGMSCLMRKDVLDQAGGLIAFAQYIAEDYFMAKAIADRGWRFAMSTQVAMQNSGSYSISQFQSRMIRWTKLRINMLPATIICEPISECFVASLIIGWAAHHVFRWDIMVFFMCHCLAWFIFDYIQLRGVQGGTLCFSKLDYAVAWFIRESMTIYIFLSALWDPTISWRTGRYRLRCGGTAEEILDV
Assay: Glucosylceramide Synthase (GCS) Assay
Format: biochemical
Conditions: test compound 10 μM; microsome fraction of Expi293F cells expressing human GCS; 1.7 μM UDP-glucose, 3 μM C8 ceramide; room temperature 60 min; C8 glucosylceramide by Rapidfire MS/MS; read-out: GCS enzyme inhibitory rate at 10 μM (%)
Method in brief: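 Test compounds were run at a final 10 μM against liposomal C8 ceramide (3 μM) and UDP-glucose at its Km (1.7 μM). Human GCS came as microsomes from transfected Expi293F cells, incubated 60 min at room temperature, pH 7.5. Product measured by RapidFire MS/MS; 0% and 100% inhibition were DMSO and no-enzyme wells.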

Row | SMILES | inhibition at 10 µM [%]
1 | Cc1cc(C(=O)Nc2ccc(C(C)(C)O)nc2)c(=O)n(-c2ccccc2OCC(F)F)n1 [Example 135, 2-[2-(2,2-difluoroethoxy)phenyl]-N-[6-(2-hydroxypropan-2-yl)pyridin-3-yl]-6-methyl-3-oxo-2,3-dihydropyridazine-4-carboxamide] | 98
2 | Cc1cc(C(=O)Nc2ccc(C(C)(C)O)cc2)c(=O)n(-c2ccccc2OCC(F)F)n1 [Example 136, 2-[2-(2,2-difluoroethoxy)phenyl]-N-[4-(2-hydroxypropan-2-yl)phenyl]-6-methyl-3-oxo-2,3-dihydropyridazine-4-carboxamide] | 100
3 | Cc1cc(C(=O)Nc2ccc(C(C)(C)O)cn2)c(=O)n(-c2ccccc2OCC(F)F)n1 [Example 137, 2-[2-(2,2-difluoroethoxy)phenyl]-N-[5-(2-hydroxypropan-2-yl)pyridin-2-yl]-6-methyl-3-oxo-2,3-dihydropyridazine-4-carboxamide] | 99
4 | Cc1cc(C(=O)Nc2ccc(C3COC3)cc2)c(=O)n(-c2ccccc2OCC(F)F)n1 [Example 141, 2-[2-(2,2-difluoroethoxy)phenyl]-6-methyl-N-[4-(oxetan-3-yl)phenyl]-3-oxo-2,3-dihydropyridazine-4-carboxamide] | 99
5 | Cc1cc(NC(=O)c2ccnn(-c3ccccc3OCC(F)F)c2=O)ccc1C(C)(C)O [Example 142, 2-[2-(2,2-difluoroethoxy)phenyl]-N-[4-(2-hydroxypropan-2-yl)-3-methylphenyl]-3-oxo-2,3-dihydropyridazine-4-carboxamide] | 98
6 | Cc1cc(C(C)(C)O)ccc1NC(=O)c1ccnn(-c2ccccc2OCC(F)F)c1=O [Example 143, 2-[2-(2,2-difluoroethoxy)phenyl]-N-[4-(2-hydroxypropan-2-yl)-2-methylphenyl]-3-oxo-2,3-dihydropyridazine-4-carboxamide] | 97
7 | Cc1cc(C(=O)Nc2ccc(C(C)(C)O)cc2F)c(=O)n(-c2ccccc2OCC(F)F)n1 [Example 146, 2-[2-(2,2-difluoroethoxy)phenyl]-N-[2-fluoro-4-(2-hydroxypropan-2-yl)phenyl]-6-methyl-3-oxo-2,3-dihydropyridazine-4-carboxamide] | 100
8 | CC(C)(O)c1ccc(NC(=O)c2ccnn(-c3ccccc3OCC(F)F)c2=O)c(F)c1 [Example 147, 2-[2-(2,2-difluoroethoxy)phenyl]-N-[2-fluoro-4-(2-hydroxypropan-2-yl)phenyl]-3-oxo-2,3-dihydropyridazine-4-carboxamide] | 100
9 | CC(C)(O)c1ccc(NC(=O)c2ccnn(-c3ccccc3OCC(F)(F)F)c2=O)c(F)c1 [Example 148, N-[2-fluoro-4-(2-hydroxypropan-2-yl)phenyl]-3-oxo-2-[2-(2,2,2-trifluoroethoxy)phenyl]-2,3-dihydropyridazine-4-carboxamide] | 100
10 | Cc1cc(C(=O)Nc2ccc(C(C)(C)O)cc2Cl)c(=O)n(-c2ccccc2OCC(F)F)n1 [Example 149, N-[2-chloro-4-(2-hydroxypropan-2-yl)phenyl]-2-[2-(2,2-difluoroethoxy)phenyl]-6-methyl-3-oxo-2,3-dihydropyridazine-4-carboxamide] | 100
11 | Cc1cc(C(=O)Nc2c(F)cc(C(C)(C)O)cc2F)c(=O)n(-c2ccccc2OCC(F)F)n1 [Example 150, 2-[2-(2,2-difluoroethoxy)phenyl]-N-[2,6-difluoro-4-(2-hydroxypropan-2-yl)phenyl]-6-methyl-3-oxo-2,3-dihydropyridazine-4-carboxamide] | 94
12 | COc1cc(C(C)(C)O)ccc1NC(=O)c1cc(C)nn(-c2ccccc2OCC(F)F)c1=O [Example 151, 2-[2-(2,2-difluoroethoxy)phenyl]-N-[4-(2-hydroxypropan-2-yl)-2-methoxyphenyl]-6-methyl-3-oxo-2,3-dihydropyridazine-4-carboxamide] | 53
